Article PMC12893914 (Nature, 2025)

How the values were obtained:
MOR [1] = molecular target: T1, MOR (Mus musculus, UniProt P42866); assay type: biochemical; settings: mouse spinal cord membranes
MOR [2] = molecular target: T1, MOR; assay type: biochemical; settings: mouse spinal cord membranes; 100 nM DAMGO pulse loading

T1 sequence (P42866 whole entry): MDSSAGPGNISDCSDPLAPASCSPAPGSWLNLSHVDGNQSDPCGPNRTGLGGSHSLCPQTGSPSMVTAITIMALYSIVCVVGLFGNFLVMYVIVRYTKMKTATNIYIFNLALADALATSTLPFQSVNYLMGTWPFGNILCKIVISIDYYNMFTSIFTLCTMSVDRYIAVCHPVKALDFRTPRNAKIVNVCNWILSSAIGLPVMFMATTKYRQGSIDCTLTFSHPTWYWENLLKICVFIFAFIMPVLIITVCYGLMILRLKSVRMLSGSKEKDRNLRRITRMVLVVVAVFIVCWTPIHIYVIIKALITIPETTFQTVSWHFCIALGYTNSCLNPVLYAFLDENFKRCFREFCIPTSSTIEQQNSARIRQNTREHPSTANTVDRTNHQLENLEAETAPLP

C[C@@H](NC(=O)[C@@H](N)Cc1ccc(O)cc1)C(=O)NCC(=O)N(C)[C@@H](Cc1ccccc1)C(=O)NCCO [DAMGO, [D-Ala2, N-MePhe4, Gly-ol]-enkephalin]
efficacy class in ^35S-GTPγS binding (MOR [1]): full agonists
stimulation of GTPγS binding over baseline (MOR [1]; 10 µM DAMGO): 40%
stimulation of ^35S-GTPγS binding over baseline (MOR [1]; 10 µM DAMGO): 1.4 ± 0.01 fold
efficacy in ^35S-GTPγS release (MOR [2]): does not reach this plateau
